# Experimental data published in patent US12532889B2, “Herbicidal compositions comprising glufosinate” (BASF SE, priority 2023, dated 2026).
# Assays:
# Test in all cases: Post-emergence application in field trials (Example A)
# Assay type in all cases: in vivo
# GALAP (Galium aparine) = settings: Table 3.1; GALAP growth stage 11-16, height 2-20 cm; A-1 18, B-2 500 g ai/ha; 28 DAT; water 100 l/ha
# Outline: (§1)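 Field sites with natural or seeded weed stands were sprayed post-emergence with solo and mixture herbicide compositions. Weed damage was rated visually at the stated days after treatment on a 0–100% scale versus untreated plants. Expected additive activity E was calculated by the Colby method.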
# [1] = test system: AMAPA (Amaranthus palmeri); settings: Table 1.27, AMAPA height 30 cm, 21 DAT, water 200 l/ha
# Outline: as §1
# [2] = test system: HORVS (Hordeum vulgare (spring barley)); settings: Table 3.1, HORVS volunteer barley, growth stage 22-24, height 32-35 cm, 28 DAT, water 100 l/ha
# Outline: as §1
# CYPIR (Cyperus iria) = settings: Table 2.1, CYPIR growth stage 13-14, height 3-5 cm, 14 DAT, water 300 l/ha
# Outline: as §1
# IPOTR (Ipomoea triloba) = settings: 21 DAT
# Outline: as §1
# [3] = test system: BOILF (Spermacoce latifolia); settings: Table 1.16, A-1 25, B-2 400 g ai/ha, 21 DAT, water 200 l/ha
# Outline: as §1
# BIDPI (Bidens pilosa) = settings: Table 1.14; BIDPI height 20-45 cm; A-1 50, B-2 400 g ai/ha; 21 DAT; water 100 l/ha
# Outline: as §1
# [4] = test system: SPCHI (Spermacoce hispida); settings: Table 1.2; SPCHI height 25 cm; B-2 solo 400 g ai/ha; 14 DAT; water volume 100 l/ha; 0.5% v/v MSO
# Method: (§2) In the examples below, using the method of S. R. Colby (1967) “Calculating synergistic and antagonistic responses of herbicide combinations”, Weeds 15, p. 22ff., the value E, which is expected if the activity of the individual active compounds is only additive, was calculated:
# (§3) [formula] • where • X=percent activity using active herbicide A at an application rate a; • Y=percent activity using active herbicide B (e.g. glufosinate) at an application rate b; • E=expected activity (in %) by A+B at application rates a+b.
# (§4) If the value found experimentally is higher than the value E calculated according to Colby, a synergistic effect is present.
# (§5) On field test sites, natural weed infestation or seeded weeds were treated post-emergence of the weeds.
# (§6) In the field trials, the weeds were treated as indicated below.
# (§7) In the following experiments, the herbicidal activity for the individual herbicidal compositions (solo and mixture applications) was assessed at the indicated days after treatment (DAT). The assessments for the damage on undesired weeds caused by the composition was carried out using a scale from 0 to 100%, compared to the untreated control plants. Here, 0 means no damage and 100 means complete destruction of the plants.
# (§8) Post-emergence application of Herbicide A-1 (A-1) and glufosinate ammonium (B-2) in Field Trials:
# (§9) Herbicide A-1 (50 g/l), glufosinate ammonium (200 g/l) and optional herbicide C were, together with addition of 0.5% v/v MSO (methylated seed oil) as adjuvant, formulated in water as distribution medium as indicated and sprayed with commercial flat fan nozzles.
# ELEIN (Eleusine indica) [5] = test system: ELEIN (Eleusine indica)
# Method: as §2, §3, §4, §5, §6, §7, §8, §9
# [6] = test system: CYPDI (Cyperus difformis); settings: CYPDI height 25 cm
# Method: as §2, §3, §4, §5, §6, §7, §8, §9
# [7] = test system: DIGIN = TRCIN (Digitaria insularis)
# Method: as §2, §3, §4, §5, §6, §7, §8, §9
# [8] = test system: SETVE (Setaria verticillata); settings: 42 DAT; B-6 252 g ai/ha; growth stage 21-23; height 8-16 cm
# Outline: as §1
# CYNDA (Cynodon dactylon) = settings: A-1 25, B-6 252 g ai/ha, 28 DAT, water 400 l/ha
# Outline: as §1
# [9] = test system: CYPKH (Cyperus kyllingia var. humilis); settings: Table 5.4; CYPKH growth stage 76-77, height 13-14 cm; A-1 25, B-6 252 g ai/ha; 28 DAT; water 400 l/ha
# Outline: as §1
# ELEIN (Eleusine indica) [10] = settings: A-1 25, B-6 252 g ai/ha, water 400 l/ha
smiles,measurement,setting,value
"CP(=O)(O)CCC(N)C(=O)O (stereo not drawn) [B-2, glufosinate-ammonium]",% herbicidal activity,GALAP (Galium aparine),27%
same,% herbicidal activity,"[1]; A-1 12.5, B-2 400 g ai/ha",20%
same,% herbicidal activity,"[1]; A-1 25, B-2 400 g ai/ha",20%
same,% herbicidal activity,"[2]; A-1 12.5, B-2 500 g ai/ha",15%
same,% herbicidal activity,"[2]; A-1 18, B-2 500 g ai/ha",15%
same,% herbicidal activity,"CYPIR (Cyperus iria); A-1 12.5, B-2 500 g ai/ha",77%
same,% herbicidal activity,"CYPIR (Cyperus iria); A-1 25, B-2 500 g ai/ha",77%
same,% herbicidal activity,"IPOTR (Ipomoea triloba); Table 1.11, A-1 25, B-2 400 g ai/ha, water 100 l/ha",60%
same,% herbicidal activity,"IPOTR (Ipomoea triloba); Table 1.16, A-1 25, B-2 400 g ai/ha, water 200 l/ha",68%
same,% herbicidal activity,[3],73%
same,% herbicidal activity,BIDPI (Bidens pilosa),55%
same,% herbicidal activity,[4],20%
same,% herbicidal activity,"ELEIN (Eleusine indica) [5]; Table 1.10, ELEIN growth stage 23-25, height 3-5 cm, A-1 25, B-2 400 g ai/ha, 20 DAT, water 200 l/ha",35%
same,% herbicidal activity,"ELEIN (Eleusine indica) [5]; Table 1.1, ELEIN growth stage 24, B-2 solo 400 g ai/ha, 14 DAT, water volume 100 l/ha, 0.5% v/v MSO",12%
same,% herbicidal activity,"ELEIN (Eleusine indica) [5]; Table 1.14, ELEIN growth stage 24, A-1 25, B-2 400 g ai/ha, 21 DAT, water 100 l/ha",0%
same,% herbicidal activity,"ELEIN (Eleusine indica) [5]; Table 1.15, ELEIN height 25 cm, A-1 25, B-2 400 g ai/ha, 21 DAT, water 100 l/ha",10%
same,% herbicidal activity,"ELEIN (Eleusine indica) [5]; Table 1.15, ELEIN height 25 cm, A-1 50, B-2 400 g ai/ha, 21 DAT, water 100 l/ha",10%
same,% herbicidal activity,"ELEIN (Eleusine indica) [5]; Table 1.18, ELEIN growth stage 24, A-1 25, B-2 400 g ai/ha, 21 DAT, water 200 l/ha",0%
same,% herbicidal activity,"ELEIN (Eleusine indica) [5]; Table 1.18, ELEIN growth stage 24, A-1 50, B-2 400 g ai/ha, 21 DAT, water 200 l/ha",0%
same,% herbicidal activity,"ELEIN (Eleusine indica) [5]; Table 1.21, ELEIN growth stage 24, A-1 25, B-2 400 g ai/ha, 21 DAT, water 200 l/ha",0%
same,% herbicidal activity,"ELEIN (Eleusine indica) [5]; Table 1.21, ELEIN growth stage 24, A-1 50, B-2 400 g ai/ha, 21 DAT, water 200 l/ha",0%
same,% herbicidal activity,"ELEIN (Eleusine indica) [5]; Table 1.4, ELEIN growth stage 24, A-1 50, B-2 400 g ai/ha, 14 DAT, water 200 l/ha",18%
same,% herbicidal activity,"ELEIN (Eleusine indica) [5]; Table 1.9, ELEIN growth stage 23-25, height 3-5 cm, A-1 25, B-2 400 g ai/ha, 20 DAT, water 100 l/ha",20%
same,% herbicidal activity,"[6]; Table 1.15, A-1 25, B-2 400 g ai/ha, 21 DAT, water 100 l/ha",10%
same,% herbicidal activity,"[6]; Table 1.2, B-2 solo 400 g ai/ha, 14 DAT, water volume 100 l/ha, 0.5% v/v MSO",20%
same,% herbicidal activity,"[7]; Table 1.13, DIGIN height 20-30 cm, A-1 50, B-2 400 g ai/ha, 21 DAT, water 100 l/ha",20%
same,% herbicidal activity,"[7]; Table 1.17, DIGIN height 20-30 cm, A-1 50, B-2 400 g ai/ha, 21 DAT, water 200 l/ha",30%
same,% herbicidal activity,"[7]; Table 1.19, DIGIN height 20-30 cm, A-1 50, B-2 400 g ai/ha, 21 DAT, water 200 l/ha",30%
same,% herbicidal activity,"[7]; Table 1.20, DIGIN height 60-80 cm, A-1 50, B-2 400 g ai/ha, 21 DAT, water 200 l/ha",57%
same,% herbicidal activity,"[7]; Table 1.22, DIGIN in tillering stage, height 5-15 cm, A-1 50, B-2 400 g ai/ha, 21 DAT, water 200 l/ha",35%
same,% herbicidal activity,"[7]; Table 1.22, DIGIN in tillering stage, height 5-15 cm, A-1 50, B-2 600 g ai/ha, 21 DAT, water 200 l/ha",70%
same,% herbicidal activity,"[7]; Table 1.23, DIGIN growth stage 16-18, height 15-25 cm, A-1 50, B-2 400 g ai/ha, 21 DAT, water 200 l/ha",55%
same,% herbicidal activity,"[7]; Table 1.23, DIGIN growth stage 16-18, height 15-25 cm, A-1 50, B-2 600 g ai/ha, 21 DAT, water 200 l/ha",65%
same,% herbicidal activity,"[7]; Table 1.24, DIGIN growth stage 67, height 100 cm, A-1 50, B-2 400 g ai/ha, 21 DAT, water 200 l/ha",17%
same,% herbicidal activity,"[7]; Table 1.24, DIGIN growth stage 67, height 100 cm, A-1 50, B-2 600 g ai/ha, 21 DAT, water 200 l/ha",37%
same,% herbicidal activity,"[7]; Table 1.25, DIGIN in tillering stage, height 8-20 cm, A-1 50, B-2 400 g ai/ha, 21 DAT, water 200 l/ha",25%
same,% herbicidal activity,"[7]; Table 1.25, DIGIN in tillering stage, height 8-20 cm, A-1 50, B-2 600 g ai/ha, 21 DAT, water 200 l/ha",43%
same,% herbicidal activity,"[7]; Table 1.26, DIGIN in tillering stage, height 50-70 cm, A-1 50, B-2 400 g ai/ha, 21 DAT, water 200 l/ha",15%
same,% herbicidal activity,"[7]; Table 1.26, DIGIN in tillering stage, height 50-70 cm, A-1 50, B-2 600 g ai/ha, 21 DAT, water 200 l/ha",15%
same,% herbicidal activity,"[7]; Table 1.3, DIGIN height 60-80 cm, A-1 25, B-2 400 g ai/ha, 14 DAT, water 200 l/ha",68%
same,% herbicidal activity,"[7]; Table 1.3, DIGIN height 60-80 cm, A-1 50, B-2 400 g ai/ha, 14 DAT, water 200 l/ha",68%
same,% herbicidal activity,"[7]; Table 1.5, DIGIN growth stage 16-18, height 15-25 cm, A-1 50, B-2 400 g ai/ha, 14 DAT, water 200 l/ha",60%
same,% herbicidal activity,"[7]; Table 1.5, DIGIN growth stage 16-18, height 15-25 cm, A-1 50, B-2 600 g ai/ha, 14 DAT, water 200 l/ha",70%
same,% herbicidal activity,"[7]; Table 1.7, DIGIN height 50-70 cm, tillering stage, B-2 solo 600 g ai/ha, 14 DAT, water volume 200 l/ha, 0.5% v/v MSO",17%
"CP(=O)(O)CC[C@H](N)C(=O)O.N [B-6, glufosinate-P-ammonium]",% Herbicidal activity,[8],60%
same,% herbicidal activity,[8],35%
same,% herbicidal activity,"CYNDA (Cynodon dactylon); Table 5.4, CYNDA growth stage 76-77, height 15-16 cm",88%
same,% herbicidal activity,"CYNDA (Cynodon dactylon); Table 5.5, CYNDA growth stage 72",86%
same,% herbicidal activity,[9],48%
same,% herbicidal activity,"ELEIN (Eleusine indica) [10]; Table 5.1, ELEIN height 5-20 cm, 21 DAT",0%
same,% herbicidal activity,"ELEIN (Eleusine indica) [10]; Table 5.6, ELEIN growth stage 14-15, height 9-14 cm, 28 DAT",40%
